Data: patent US6635278B1, “Pharmaceutical formulations” (Gilead Sciences, Inc., priority 1998, dated 2003)

Legend:
[1] = AD solubility in crystallization solvents; type: physicochemical
[2] = Stability of aqueous AD solutions versus pH; type: physicochemical

CC(C)(C)C(=O)OCOP(=O)(COCCn1cnc2c(N)ncnc21)OCOC(=O)C(C)(C)C [AD, 9-[2-[[bis[(pivaloyloxy)methyl]phosphono]methoxy]ethyl]adenine]
AD content the solvent can contain ([1]; methanol or CH2Cl2): more than 50% | upper limit of solubility of AD ([1]; most crystallization solvents at room temperature): 10-41% | solubility ([1]; organic solvent or mixture, in di-n-butyl ether): < 300 µg/mL | pH of maximum stability [2]: 3-5
